# Results from paper PMC5218480 (PLoS ONE, 2017).
# System: MV-4-11 cells
# Experiment: Gene expression microarray analysis (Affymetrix PrimeView) and GSEA
# Type: cell-based, human
# Set-up: RFU PODN (11730768_x_at) / Fold change /veh PODN (11730768_x_at) / RFU LINC00158 (11744669_a_at) / Fold change /veh LINC00158 (11744669_a_at) / RFU DUSP10 (11751237_a_at) / Fold change /veh DUSP10 (11751237_a_at) / RFU ID3 (11757404_x_at) / Fold change /veh ID3 (11757404_x_at) / RFU PLEKHG5 (11737974_s_at) / Fold change /veh PLEKHG5 (11737974_s_at) / RFU LRRC4B (11730491_at) / Fold change /veh LRRC4B (11730491_at) / RFU GIMAP4 (11747438_a_at) / Fold change /veh GIMAP4 (11747438_a_at) / RFU KRT8 (11758183_x_at) / Fold change /veh KRT8 (11758183_x_at) / RFU CNN1 (11734310_a_at) / Fold change /veh CNN1 (11734310_a_at) / RFU VPS37D (11726825_at) / Fold change /veh VPS37D (11726825_at) / RFU C10orf10 (11716522_x_at) / Fold change /veh C10orf10 (11716522_x_at) / RFU KIR2DL2 /// KIR2DL4 /// KIR2DL5A /// KIR2DL5B /// KIR2DS1 /// KIR2DS2 /// KIR2DS3 /// KIR2DS4 /// KIR3DL3 /// KIR3DL3 /// KIR3DS1 (11738374_at) / Fold change /veh KIR2DL2 /// KIR2DL4 /// KIR2DL5A /// KIR2DL5B /// KIR2DS1 /// KIR2DS2 /// KIR2DS3 /// KIR2DS4 /// KIR3DL3 /// KIR3DL3 /// KIR3DS1 (11738374_at) / RFU C1QL1 (11718748_at) / Fold change /veh C1QL1 (11718748_at) / RFU TMPRSS4 (11747572_a_at) / Fold change /veh TMPRSS4 (11747572_a_at) / RFU HAMP (11756126_x_at) / Fold change /veh HAMP (11756126_x_at) / RFU RNFT2 (11725882_a_at) / Fold change /veh RNFT2 (11725882_a_at) / RFU NR4A2 (11747474_a_at) / Fold change /veh NR4A2 (11747474_a_at) / RFU ABCC12 (11746883_a_at) / Fold change /veh ABCC12 (11746883_a_at) / RFU TMEM136 (11760407_x_at) / Fold change /veh TMEM136 (11760407_x_at) / RFU CLDN22 /// WWC2 (11732394_at) / Fold change /veh CLDN22 /// WWC2 (11732394_at) / RFU HLA-DPB1 (11760878_x_at) / Fold change /veh HLA-DPB1 (11760878_x_at) / RFU SPINT1 (11716480_a_at) / Fold change /veh SPINT1 (11716480_a_at) / RFU GAP43 (11754022_s_at) / Fold change /veh GAP43 (11754022_s_at) / RFU A4GNT (11735810_at) / Fold change /veh A4GNT (11735810_at) / RFU PRB3 (11715151_x_at) / Fold change /veh PRB3 (11715151_x_at) / RFU TUBB4B (11761932_at) / Fold change /veh TUBB4B (11761932_at) / RFU CAPN14 (11732068_a_at) / Fold change /veh CAPN14 (11732068_a_at) / RFU TMCC2 (11721928_a_at) / Fold change /veh TMCC2 (11721928_a_at) / RFU IRGQ (11745062_a_at) / Fold change /veh IRGQ (11745062_a_at) / RFU FAM174B (11720279_a_at) / Fold change /veh FAM174B (11720279_a_at) / RFU TMPRSS4 (11748680_a_at) / Fold change /veh TMPRSS4 (11748680_a_at) / RFU FAM212B (11763350_a_at) / Fold change /veh FAM212B (11763350_a_at) / RFU PLEKHG5 (11743358_a_at) / Fold change /veh PLEKHG5 (11743358_a_at) / RFU ZSCAN30 (11745921_a_at) / Fold change /veh ZSCAN30 (11745921_a_at) / RFU CMKLR1 (11741424_a_at) / Fold change /veh CMKLR1 (11741424_a_at) / RFU LOC101060620 /// MAPK8IP1 (11723275_at) / Fold change /veh LOC101060620 /// MAPK8IP1 (11723275_at) / RFU SPTSSB (11747773_x_at) / Fold change /veh SPTSSB (11747773_x_at) / RFU PRSS12 (11739890_at) / Fold change /veh PRSS12 (11739890_at) / RFU BIN1 (11741810_x_at) / Fold change /veh BIN1 (11741810_x_at) / RFU WNT11 (11732464_a_at) / Fold change /veh WNT11 (11732464_a_at) / RFU C10orf10 (11716521_a_at) / Fold change /veh C10orf10 (11716521_a_at) / RFU C5orf56 (11738089_at) / Fold change /veh C5orf56 (11738089_at) / RFU CYB561 (11721691_x_at) / Fold change /veh CYB561 (11721691_x_at) / RFU ANKRD19P (11752326_a_at) / Fold change /veh ANKRD19P (11752326_a_at) / RFU OR2T12 /// OR2T33 /// OR2T8 (11738714_s_at) / Fold change /veh OR2T12 /// OR2T33 /// OR2T8 (11738714_s_at) / RFU VCAN (11748164_a_at) / Fold change /veh VCAN (11748164_a_at) / RFU JSRP1 (11732532_at) / Fold change /veh JSRP1 (11732532_at) / RFU KRTAP10-11 (11738290_x_at) / Fold change /veh KRTAP10-11 (11738290_x_at) / RFU MYO3A (11730013_a_at) / Fold change /veh MYO3A (11730013_a_at) / RFU EBF3 (11725865_a_at) / Fold change /veh EBF3 (11725865_a_at) / RFU CAMK2N1 (11719241_x_at) / Fold change /veh CAMK2N1 (11719241_x_at) / RFU C5orf56 (11738088_a_at) / Fold change /veh C5orf56 (11738088_a_at) / RFU OLFML3 (11715873_a_at) / Fold change /veh OLFML3 (11715873_a_at) / RFU LOC100653217 /// NTM (11731650_a_at) / Fold change /veh LOC100653217 /// NTM (11731650_a_at) / RFU MAPK11 (11762145_a_at) / Fold change /veh MAPK11 (11762145_a_at) / RFU FIZ1 (11724087_x_at) / Fold change /veh FIZ1 (11724087_x_at) / RFU OASL (11726364_x_at) / Fold change /veh OASL (11726364_x_at) / RFU SOX15 (11748057_x_at) / Fold change /veh SOX15 (11748057_x_at) / RFU CD79A (11719716_a_at) / Fold change /veh CD79A (11719716_a_at) / RFU HIST1H1D (11736915_at) / Fold change /veh HIST1H1D (11736915_at) / RFU CASKIN2 (11723855_a_at) / Fold change /veh CASKIN2 (11723855_a_at) / RFU LOC730098 (11760151_x_at) / Fold change /veh LOC730098 (11760151_x_at) / RFU OR4N2 (11742367_at) / Fold change /veh OR4N2 (11742367_at) / RFU PRRT2 (11749266_a_at) / Fold change /veh PRRT2 (11749266_a_at) / RFU SNX32 (11753110_a_at) / Fold change /veh SNX32 (11753110_a_at) / RFU CDHR5 (11726645_a_at) / Fold change /veh CDHR5 (11726645_a_at) / RFU RCAN1 (11760418_a_at) / Fold change /veh RCAN1 (11760418_a_at) / RFU FAM167A (11723789_a_at) / Fold change /veh FAM167A (11723789_a_at) / RFU FAM26E (11764081_at) / Fold change /veh FAM26E (11764081_at) / RFU ISYNA1 (11749810_s_at) / Fold change /veh ISYNA1 (11749810_s_at) / RFU ACY1 (11761880_at) / Fold change /veh ACY1 (11761880_at) / RFU 11764098_at / Fold change /veh 11764098_at / RFU SAMD14 (11745864_x_at) / Fold change /veh SAMD14 (11745864_x_at) / RFU NPB (11741838_a_at) / Fold change /veh NPB (11741838_a_at) / RFU TMPRSS6 (11731388_a_at) / Fold change /veh TMPRSS6 (11731388_a_at) / RFU KRTAP10-2 (11738614_at) / Fold change /veh KRTAP10-2 (11738614_at) / RFU ARHGAP8 /// PRR5-ARHGAP8 (11727945_x_at) / Fold change /veh ARHGAP8 /// PRR5-ARHGAP8 (11727945_x_at) / RFU KRTAP5-7 /// NADSYN1 (11734609_at) / Fold change /veh KRTAP5-7 /// NADSYN1 (11734609_at) / RFU RASL12 (11751679_a_at) / Fold change /veh RASL12 (11751679_a_at) / RFU CDKN2B (11736163_a_at) / Fold change /veh CDKN2B (11736163_a_at) / RFU PRF1 (11729649_at) / Fold change /veh PRF1 (11729649_at) / RFU, ZNF638 /// ZNF638-IT1 / Fold change vs veh, ZNF638 /// ZNF638-IT1 / RFU, PANK3 / Fold change vs veh, PANK3 / RFU, SH3YL1 / Fold change vs veh, SH3YL1 / RFU, ZEB2 / Fold change vs veh, ZEB2 / RFU, NRIP1 / Fold change vs veh, NRIP1 / RFU, PTTG1IP / Fold change vs veh, PTTG1IP / RFU, CAPN2 / Fold change vs veh, CAPN2 / RFU, MED14 / Fold change vs veh, MED14 / RFU, SNORA58 / Fold change vs veh, SNORA58 / RFU, C1orf63 / Fold change vs veh, C1orf63 / RFU, LRRFIP1 / Fold change vs veh, LRRFIP1 / RFU, NDUFAF7 / Fold change vs veh, NDUFAF7 / RFU, SLC12A2 / Fold change vs veh, SLC12A2 / RFU, IBTK / Fold change vs veh, IBTK / RFU, ESF1 / Fold change vs veh, ESF1 / Fold change vs veh, TMEM50B / RFU, TAOK1 / Fold change vs veh, TAOK1 / RFU, ACBD3 / Fold change vs veh, ACBD3 / RFU, TMA16 / Fold change vs veh, TMA16 / RFU, RWDD3 / Fold change vs veh, RWDD3 / RFU, BCAT1 / Fold change vs veh, BCAT1 / RFU, EDEM3 / Fold change vs veh, EDEM3 / RFU, TMEM33 / Fold change vs veh, TMEM33 / RFU, WDR75 / Fold change vs veh, WDR75 / RFU, AHCTF1 / Fold change vs veh, AHCTF1 / RFU, TFRC / Fold change vs veh, TFRC / RFU, ZDHHC17 / Fold change vs veh, ZDHHC17 / RFU, NOM1 / Fold change vs veh, NOM1 / RFU, ARL8B / Fold change vs veh, ARL8B / RFU, ZBTB11 / Fold change vs veh, ZBTB11 / RFU, TAMM41 / Fold change vs veh, TAMM41 / RFU, KIAA1704 /// LOC100996395 / Fold change vs veh, KIAA1704 /// LOC100996395 / RFU, ING1 / Fold change vs veh, ING1 / RFU, TRMT61B / Fold change vs veh, TRMT61B / RFU, FUBP3 / Fold change vs veh, FUBP3 / RFU, TP53 / Fold change vs veh, TP53 / RFU, TNKS2 / Fold change vs veh, TNKS2 / RFU, ZFP14 / Fold change vs veh, ZFP14 / RFU, ACTR2 / Fold change vs veh, ACTR2 / RFU, PPP3R1 / Fold change vs veh, PPP3R1 / RFU, PIK3R1 / Fold change vs veh, PIK3R1 / RFU, HNRNPA1 / Fold change vs veh, HNRNPA1 / RFU, RNF170 / Fold change vs veh, RNF170 / RFU, ZNF28 / Fold change vs veh, ZNF28 / RFU, RNGTT / Fold change vs veh, RNGTT / RFU, OGT / Fold change vs veh, OGT / RFU, BRD1 / Fold change vs veh, BRD1 / RFU, MARS / Fold change vs veh, MARS / RFU, ZNF655 / Fold change vs veh, ZNF655 / RFU, FAHD1 / Fold change vs veh, FAHD1 / RFU, BDP1 / Fold change vs veh, BDP1 / RFU, LRRCC1 / Fold change vs veh, LRRCC1 / RFU, ARID1A / Fold change vs veh, ARID1A / RFU, ZNF146 / Fold change vs veh, ZNF146 / RFU, ZNF330 / Fold change vs veh, ZNF330 / RFU, GPN3 / Fold change vs veh, GPN3 / RFU, C9orf123 / Fold change vs veh, C9orf123 / RFU, N4BP2L2 / Fold change vs veh, N4BP2L2 / RFU, ARFIP1 / Fold change vs veh, ARFIP1 / RFU, FAM179B / Fold change vs veh, FAM179B / RFU, BCL10 / Fold change vs veh, BCL10 / RFU, UHRF1BP1L / Fold change vs veh, UHRF1BP1L / RFU, BET1 / Fold change vs veh, BET1 / RFU, CNOT2 / Fold change vs veh, CNOT2 / RFU, ZNF268 / Fold change vs veh, ZNF268 / Fold change vs veh, ZNF507 / RFU, DGCR2 / Fold change vs veh, DGCR2 / RFU, WDSUB1 / Fold change vs veh, WDSUB1 / Fold change vs veh, HSP90B1 /// MIR3652 / RFU, ADSS / Fold change vs veh, ADSS / RFU, GK / Fold change vs veh, GK / RFU, ZNF148 / Fold change vs veh, ZNF148 / RFU, TAF9 / Fold change vs veh, TAF9 / RFU, SLC1A5 / Fold change vs veh, SLC1A5 / RFU, SLMO2 / Fold change vs veh, SLMO2 / RFU, ABCC4 / Fold change vs veh, ABCC4 / RFU, LOC101060439 /// RAP1B / Fold change vs veh, LOC101060439 /// RAP1B / RFU, RFX7 / Fold change vs veh, RFX7 / RFU, GTPBP10 / Fold change vs veh, GTPBP10 / RFU, CNEP1R1 / Fold change vs veh, CNEP1R1 / RFU, BIVM-ERCC5 /// ERCC5 / Fold change vs veh, BIVM-ERCC5 /// ERCC5 / RFU, ILF3 / Fold change vs veh, ILF3 / RFU 11762660_at / Fold change /veh 11762660_at / RFU VCAN (11757783_s_at) / Fold change /veh VCAN (11757783_s_at) / RFU DDX43 (11728927_at) / Fold change /veh DDX43 (11728927_at) / RFU KRT8 (11758188_x_at) / Fold change /veh KRT8 (11758188_x_at) / RFU NKD1 (11759106_at) / Fold change /veh NKD1 (11759106_at) / RFU SRD5A1 (11742802_a_at) / Fold change /veh SRD5A1 (11742802_a_at) / RFU TPSAB1 /// TPSB2 (11721975_s_at) / Fold change /veh TPSAB1 /// TPSB2 (11721975_s_at) / RFU GSTM3 (11746129_a_at) / Fold change /veh GSTM3 (11746129_a_at) / RFU IL23R (11737362_x_at) / Fold change /veh IL23R (11737362_x_at) / RFU TMEM51 (11727254_a_at) / Fold change /veh TMEM51 (11727254_a_at) / RFU PIWIL2 (11732686_x_at) / Fold change /veh PIWIL2 (11732686_x_at) / RFU ORM1 (11744905_x_at) / Fold change /veh ORM1 (11744905_x_at) / RFU CCDC152 (11743942_at) / Fold change /veh CCDC152 (11743942_at) / RFU ECM1 (11717891_a_at) / Fold change /veh ECM1 (11717891_a_at) / RFU IL23R (11748794_a_at) / Fold change /veh IL23R (11748794_a_at) / RFU TNFAIP8L3 (11732012_x_at) / Fold change /veh TNFAIP8L3 (11732012_x_at) / RFU MBOAT4 (11741988_at) / Fold change /veh MBOAT4 (11741988_at) / RFU 11764193_at / Fold change /veh 11764193_at / RFU TMEM53 (11763286_at) / Fold change /veh TMEM53 (11763286_at) / RFU MAGEB2 (11727129_at) / Fold change /veh MAGEB2 (11727129_at) / RFU TMEM200A (11744735_a_at) / Fold change /veh TMEM200A (11744735_a_at) / RFU CCDC152 (11751479_a_at) / Fold change /veh CCDC152 (11751479_a_at) / RFU FAM211A (11726209_a_at) / Fold change /veh FAM211A (11726209_a_at) / RFU RGS16 (11746705_a_at) / Fold change /veh RGS16 (11746705_a_at) / RFU VCAN (11755009_s_at) / Fold change /veh VCAN (11755009_s_at) / RFU RHOB (11743442_s_at) / Fold change /veh RHOB (11743442_s_at) / RFU RGS16 (11720943_a_at) / Fold change /veh RGS16 (11720943_a_at) / RFU RGS16 (11720944_at) / Fold change /veh RGS16 (11720944_at) / RFU, VPS4B / Fold change vs veh, VPS4B / RFU, CREB1 / Fold change vs veh, CREB1 / RFU, DNAJC13 / Fold change vs veh, DNAJC13 / RFU, GNAQ / Fold change vs veh, GNAQ / RFU, CDK5R1 / Fold change vs veh, CDK5R1 / RFU, ZRANB3 / Fold change vs veh, ZRANB3 / RFU, CUL4A / Fold change vs veh, CUL4A / RFU, CCNY / Fold change vs veh, CCNY / RFU, UFL1 / Fold change vs veh, UFL1 / RFU, COG3 / Fold change vs veh, COG3 / RFU, DIAPH2 / Fold change vs veh, DIAPH2 / RFU, SKA2 / Fold change vs veh, SKA2 / RFU, AFF3 / Fold change vs veh, AFF3 / RFU, LMF1 / Fold change vs veh, LMF1 / RFU, IPO11 / Fold change vs veh, IPO11 / RFU, DFFB / Fold change vs veh, DFFB / RFU, FOXP1 / Fold change vs veh, FOXP1 / RFU, CARD8 / Fold change vs veh, CARD8 / RFU, STRN3 / Fold change vs veh, STRN3 / RFU, ADK / Fold change vs veh, ADK / RFU, RASSF2 / Fold change vs veh, RASSF2 / RFU, WIPF1 / Fold change vs veh, WIPF1 / RFU, LARP1B / Fold change vs veh, LARP1B / RFU, RASA1 / Fold change vs veh, RASA1 / RFU, RB1 / Fold change vs veh, RB1 / RFU, PPFIA1 / Fold change vs veh, PPFIA1 / RFU, MAT2A / Fold change vs veh, MAT2A / RFU, CCT5 / Fold change vs veh, CCT5 / RFU, WDR92 / Fold change vs veh, WDR92 / RFU, CUX1 / Fold change vs veh, CUX1 / RFU, TTC7A / Fold change vs veh, TTC7A / RFU, TMEM135 / Fold change vs veh, TMEM135 / RFU, DEPTOR / Fold change vs veh, DEPTOR / RFU, CPM / Fold change vs veh, CPM / RFU, DNAJB6 / Fold change vs veh, DNAJB6 / RFU, CACNA2D3 / Fold change vs veh, CACNA2D3 / RFU, DTX4 / Fold change vs veh, DTX4 / RFU, TFCP2 / Fold change vs veh, TFCP2 / RFU, GMCL1 /// GMCL1P1 / Fold change vs veh, GMCL1 /// GMCL1P1 / RFU, AEBP2 / Fold change vs veh, AEBP2 / RFU, SNHG1 /// SNORD22 /// SNORD25 /// SNORD26 /// SNORD27 /// SNORD28 /// SNORD29 /// SNORD31 / Fold change vs veh, SNHG1 /// SNORD22 /// SNORD25 /// SNORD26 /// SNORD27 /// SNORD28 /// SNORD29 /// SNORD31 / Fold change (Aza/veh), C12orf56 (ProbeSet 11735607_a_at) / Fold change (ACY-1035/veh), C12orf56 (ProbeSet 11735607_a_at) / Fold change (Aza/veh), FGFR1OP (ProbeSet 11751329_s_at) / Fold change (ACY-1035/veh), FGFR1OP (ProbeSet 11751329_s_at) / Fold change (Aza/veh), VPS36 (ProbeSet 11739960_a_at) / Fold change (ACY-1035/veh), VPS36 (ProbeSet 11739960_a_at) / RFU SYPL1 (11715823_x_at) / Fold change /veh SYPL1 (11715823_x_at) / RFU IGFBP7 (11715501_s_at) / Fold change /veh IGFBP7 (11715501_s_at) / RFU REEP3 (11722064_at) / Fold change /veh REEP3 (11722064_at) / RFU IGLL1 (11728026_x_at) / Fold change /veh IGLL1 (11728026_x_at): dose or concentration left out as unconfirmed
# Details: MV-4-11 cells, 48 hours
compound,measurement,value
Nc1ccc(-c2cccs2)cc1NC(=O)c1ccc2c(c1)cc(C1CC1)n2CCN1CCOCC1 [ACY-1035],Fold change /veh C1QL1 (11718748_at),0.88
